# Reference: PubChem BioAssay AID328 (DTP/NCI, 2004)
# “And” between values parts separate entries of the source, which are not always exact repeats. Identical values can stand only once. Inconclusive results and toxic doses are left out.
# System: BDF1 mice, P388 leukemia ip, median survival T/C
# Experiment: NCI In Vivo Anticancer Drug Screen. Data for tumor model P388 Leukemia (intraperitoneal) in B6D2F1 (BDF1) mice
# Details: endpoint: median survival time, higher = longer survival
# Method in brief: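 Compound-treated tumour-bearing mice were compared with vehicle-treated controls. Survival was recorded, and the value is the treated-group measurement divided by the control-group measurement (T/C).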
# [1] = dose: 6.25 mg/kg/injection, schedule: Q01DX009 (ip), vehicle: saline with Tween-80
# [2] = dose: 12.5 mg/kg/injection, schedule: Q01DX009 (ip), vehicle: saline with Tween-80
# [3] = dose: 25.0 mg/kg/injection, schedule: Q01DX009 (ip), vehicle: saline with Tween-80
# [4] = dose: 200.0 mg/kg/injection, schedule: Q04DX003 (ip), vehicle: saline with Tween-80
# [5] = dose: 400.0 mg/kg/injection, schedule: Q04DX003 (ip), vehicle: saline with Tween-80
# [6] = dose: 100.0 mg/kg/injection, schedule: Q04DX003 (ip), vehicle: saline with Tween-80
# [7] = dose: 50.0 mg/kg/injection, schedule: Q04DX003 (ip), vehicle: saline
# [8] = dose: 100.0 mg/kg/injection, schedule: Q04DX003 (ip), vehicle: saline
smiles,measurement,setting,value
CCOC(=O)c1c(NC(=O)CCl)ssc1=S,T/C,"dose: 0.78 mg/kg/injection, schedule: Q01DX009 (ip), vehicle: saline with Tween-80",116 % of control
same,T/C,"dose: 1.56 mg/kg/injection, schedule: Q01DX009 (ip), vehicle: saline with Tween-80",116 % of control
same,T/C,"dose: 3.12 mg/kg/injection, schedule: Q01DX009 (ip), vehicle: saline with Tween-80",116 % of control
same,T/C,[1],116 % of control
same,T/C,[2],114 % of control
same,T/C,[3],109 % of control
same,T/C,"dose: 50.0 mg/kg/injection, schedule: Q01DX009 (ip), vehicle: saline with Tween-80",111 % of control
same,T/C,"dose: 50.0 mg/kg/injection, schedule: Q04DX003 (ip), vehicle: saline with Tween-80",102 % of control
same,T/C,[4],100 % of control
same,T/C,[5],116 % of control
CC(C)OC(=S)SSC(=S)OC(C)C,T/C,"dose: 100.0 mg/kg/injection, schedule: Q01DX001 (ip), vehicle: Klucel (hydroxypropylcellulose) (HPC)",118 % of control
same,T/C,"dose: 100.0 mg/kg/injection, schedule: Q01DX009 (ip), vehicle: Klucel (hydroxypropylcellulose) (HPC)",104 % of control
same,T/C,"dose: 100.0 mg/kg/injection, schedule: Q04DX003 (ip), vehicle: Klucel (hydroxypropylcellulose) (HPC)",104 % of control
same,T/C,"dose: 200.0 mg/kg/injection, schedule: Q01DX001 (ip), vehicle: Klucel (hydroxypropylcellulose) (HPC)",109 % of control
same,T/C,"dose: 200.0 mg/kg/injection, schedule: Q01DX009 (ip), vehicle: Klucel (hydroxypropylcellulose) (HPC)",109 % of control
same,T/C,"dose: 200.0 mg/kg/injection, schedule: Q04DX003 (ip), vehicle: Klucel (hydroxypropylcellulose) (HPC)",118 % of control
same,T/C,"dose: 400.0 mg/kg/injection, schedule: Q01DX001 (ip), vehicle: Klucel (hydroxypropylcellulose) (HPC)",104 % of control
same,T/C,"dose: 400.0 mg/kg/injection, schedule: Q04DX003 (ip), vehicle: Klucel (hydroxypropylcellulose) (HPC)",118 % of control
O=C(C=C(C(F)(F)F)C(F)(F)F)c1ccc(Cl)cc1,T/C,[1],100 % of control
same,T/C,[2],100 % of control
same,T/C,[3],118 % of control
Cc1ccccc1N1C(=O)CSC1=S,T/C,[6],100 % of control
same,T/C,"dose: 132.0 mg/kg/injection, schedule: Q04DX003 (ip), vehicle: saline with Tween-80",90 % of control
same,T/C,[4],100 % of control
same,T/C,"dose: 300.0 mg/kg/injection, schedule: Q04DX003 (ip), vehicle: saline with Tween-80",100 % of control
same,T/C,[5],90 % of control
c1nnc(NCNc2nncs2)s1,T/C,"dose: 12.0 mg/kg/injection, schedule: Q04DX003 (ip), vehicle: saline",100 % of control
same,T/C,"dose: 12.5 mg/kg/injection, schedule: Q01DX010 (ip), vehicle: saline",204 % of control
same,T/C,"dose: 19.0 mg/kg/injection, schedule: Q04DX003 (ip), vehicle: saline",118 % of control
same,T/C,"dose: 25.0 mg/kg/injection, schedule: Q01DX010 (ip), vehicle: saline",227 % of control
same,T/C,"dose: 29.0 mg/kg/injection, schedule: Q04DX003 (ip), vehicle: saline",186 % of control
same,T/C,"dose: 45.0 mg/kg/injection, schedule: Q04DX003 (ip), vehicle: saline",177 % of control
same,T/C,"dose: 50.0 mg/kg/injection, schedule: Q01DX009 (ip), vehicle: saline",100 % of control
same,T/C,"dose: 50.0 mg/kg/injection, schedule: Q01DX010 (ip), vehicle: saline",90 % of control
same,T/C,[7],190 % of control
same,T/C,"dose: 66.0 mg/kg/injection, schedule: Q04DX003 (ip), vehicle: saline",150 % of control and 195 % of control
same,T/C,"dose: 100.0 mg/kg/injection, schedule: Q01DX009 (ip), vehicle: saline",100 % of control
same,T/C,[8],227 % of control and 235 % of control and 195 % of control
same,T/C,"dose: 150.0 mg/kg/injection, schedule: Q04DX003 (ip), vehicle: saline",210 % of control and 213 % of control
CSc1nc(Cl)cc2c1ncn2C1OC(CO)C(O)C1O (stereo not drawn),T/C,"dose: 12.5 mg/kg/injection, schedule: Q04DX003 (ip), vehicle: saline",105 % of control
same,T/C,"dose: 25.0 mg/kg/injection, schedule: Q04DX003 (ip), vehicle: saline",102 % of control
same,T/C,[7],102 % of control
same,T/C,[8],112 % of control
same,T/C,"dose: 200.0 mg/kg/injection, schedule: Q04DX003 (ip), vehicle: saline",110 % of control
same,T/C,"dose: 400.0 mg/kg/injection, schedule: Q04DX003 (ip), vehicle: saline",100 % of control
CN(C)c1ccc(NC(=O)Nc2cccc(Cl)c2)cc1,T/C,[6],95 % of control
same,T/C,[4],90 % of control
same,T/C,[5],95 % of control
